PubChem BioAssay (NCI)
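48-hour exposure; five concentrations; linearly interpolated endpoints. At the TGI there is no net growth.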

Key:
Assay in all cases: NCI anticancer screen, dose series, 48 h
MDA-MB-435 = test system: MDA-MB-435
UO-31 renal = test system: UO-31 renal
SNB-75 CNS = test system: SNB-75 CNS
SNB-78 CNS = test system: SNB-78 CNS
SN12C renal = test system: SN12C renal
M14 melanoma = test system: M14 melanoma
KM20L2 colon = test system: KM20L2 colon
MDA-MB-231 breast = test system: MDA-MB-231 breast
SNB-19 CNS = test system: SNB-19 CNS
ACHN renal = test system: ACHN renal
NCI-H23 lung = test system: NCI-H23 lung
MDA-N = test system: MDA-N
HCT-116 colon = test system: HCT-116 colon
SF-295 CNS = test system: SF-295 CNS
COLO 205 colon = test system: COLO 205 colon
SW-620 colon = test system: SW-620 colon
NCI-H460 lung = test system: NCI-H460 lung
DU-145 prostate = test system: DU-145 prostate
DMS 273 small cell lung = test system: DMS 273 small cell lung
SR leukemia = test system: SR leukemia
CCRF-CEM leukemia = test system: CCRF-CEM leukemia
IGROV1 ovarian = test system: IGROV1 ovarian
U251 CNS = test system: U251 CNS
OVCAR-3 ovarian = test system: OVCAR-3 ovarian
SF-268 CNS = test system: SF-268 CNS
HS 578T breast = test system: HS 578T breast
SK-MEL-2 melanoma = test system: SK-MEL-2 melanoma
RPMI-8226 leukemia = test system: RPMI-8226 leukemia
PC-3 prostate = test system: PC-3 prostate
OVCAR-5 ovarian = test system: OVCAR-5 ovarian
EKVX NSCLC = test system: EKVX NSCLC
K-562 leukemia = test system: K-562 leukemia
NCI-H522 lung = test system: NCI-H522 lung
UACC-257 melanoma = test system: UACC-257 melanoma
DLD-1 colon = test system: DLD-1 colon
OVCAR-4 ovarian = test system: OVCAR-4 ovarian
MOLT-4 leukemia = test system: MOLT-4 leukemia
TK-10 renal = test system: TK-10 renal
A498 renal = test system: A498 renal
HCT-15 colon = test system: HCT-15 colon
SK-MEL-5 melanoma = test system: SK-MEL-5 melanoma
BT-549 breast = test system: BT-549 breast
SK-OV-3 ovarian = test system: SK-OV-3 ovarian
HOP-92 NSCLC = test system: HOP-92 NSCLC
HOP-62 NSCLC = test system: HOP-62 NSCLC
UACC-62 melanoma = test system: UACC-62 melanoma
OVCAR-8 ovarian = test system: OVCAR-8 ovarian
MCF7 breast = test system: MCF7 breast
SF-539 CNS = test system: SF-539 CNS
NCI-H226 lung = test system: NCI-H226 lung
RXF 393 renal = test system: RXF 393 renal
786-0 renal = test system: 786-0 renal
CAKI-1 renal = test system: CAKI-1 renal
A549 NSCLC = test system: A549 NSCLC
SK-MEL-28 melanoma = test system: SK-MEL-28 melanoma
M19-MEL melanoma = test system: M19-MEL melanoma
LOX IMVI melanoma = test system: LOX IMVI melanoma
NCI/ADR-RES ovarian = test system: NCI/ADR-RES ovarian
HT29 colon = test system: HT29 colon
DMS 114 small cell lung = test system: DMS 114 small cell lung
XF 498 CNS = test system: XF 498 CNS
LXFL 529 NSCLC = test system: LXFL 529 NSCLC
KM12 colon = test system: KM12 colon
T-47D breast = test system: T-47D breast
MALME-3M melanoma = test system: MALME-3M melanoma
HCC-2998 colon = test system: HCC-2998 colon
HL-60(TB) leukemia = test system: HL-60(TB) leukemia

SMILES: COc1ccc2nccc(NCCCN3CCN(CCCNc4ccnc5ccc(OC)cc45)CC3)c2c1
- TGI (MDA-MB-435): 1.65 µM
- TGI (UO-31 renal): 25.8 µM
- TGI (SNB-75 CNS): 1.89 µM
- TGI (SNB-78 CNS): 3.47 µM
- TGI (SN12C renal): 1.45 µM
- TGI (M14 melanoma): 3.19 µM
- TGI (KM20L2 colon): 3.37 µM
- TGI (MDA-MB-231 breast): 4 µM
- TGI (SNB-19 CNS): 5.98 µM
- TGI (ACHN renal): 11.4 µM
- TGI (NCI-H23 lung): 2.12 µM
- TGI (MDA-N): 1.52 µM
- TGI (HCT-116 colon): 2.54 µM
- TGI (SF-295 CNS): 5.16 µM
- TGI (COLO 205 colon): 1.24 µM
- TGI (SW-620 colon): 1.04 µM
- TGI (NCI-H460 lung): 1.77 µM
- TGI (DU-145 prostate): 4.86 µM
- TGI (DMS 273 small cell lung): 1.67 µM
- TGI (SR leukemia): > 26.2 µM
- TGI (CCRF-CEM leukemia): > 100 µM
- TGI (IGROV1 ovarian): 3.69 µM
- TGI (U251 CNS): 1.51 µM
- TGI (OVCAR-3 ovarian): 7.73 µM
- TGI (SF-268 CNS): 1.79 µM
- TGI (HS 578T breast): 3.27 µM
- TGI (SK-MEL-2 melanoma): 7.99 µM
- TGI (RPMI-8226 leukemia): 1.46 µM
- TGI (PC-3 prostate): 4.15 µM
- TGI (OVCAR-5 ovarian): 4.74 µM
- TGI (EKVX NSCLC): 7.93 µM
- TGI (K-562 leukemia): 0.526 µM
- TGI (NCI-H522 lung): 0.633 µM
- TGI (UACC-257 melanoma): 2.62 µM
- TGI (DLD-1 colon): 5.12 µM
- TGI (OVCAR-4 ovarian): 2.55 µM
- TGI (MOLT-4 leukemia): 1.16 µM
- TGI (TK-10 renal): 22 µM
- TGI (A498 renal): 13.5 µM
- TGI (HCT-15 colon): 32.4 µM
- TGI (SK-MEL-5 melanoma): 2.85 µM
- TGI (BT-549 breast): 11.6 µM
- TGI (SK-OV-3 ovarian): 6.82 µM
- TGI (HOP-92 NSCLC): 2.35 µM
- TGI (HOP-62 NSCLC): 4.4 µM
- TGI (UACC-62 melanoma): 2.08 µM
- TGI (OVCAR-8 ovarian): 2.85 µM
- TGI (MCF7 breast): 1.37 µM
- TGI (SF-539 CNS): 0.681 µM
- TGI (NCI-H226 lung): 1.37 µM
- TGI (RXF 393 renal): 3.69 µM
- TGI (786-0 renal): 8.99 µM
- TGI (CAKI-1 renal): 15 µM
- TGI (A549 NSCLC): 6.55 µM
- TGI (SK-MEL-28 melanoma): 2.92 µM
- TGI (M19-MEL melanoma): 1.97 µM
- TGI (LOX IMVI melanoma): 1.49 µM
- TGI (NCI/ADR-RES ovarian): > 100 µM
- TGI (HT29 colon): 1.67 µM
- TGI (DMS 114 small cell lung): 1.91 µM
- TGI (XF 498 CNS): 1.56 µM
- TGI (LXFL 529 NSCLC): 1.82 µM
- TGI (KM12 colon): 1.79 µM
- TGI (T-47D breast): 4.65 µM
- TGI (MALME-3M melanoma): 1.88 µM
- TGI (HCC-2998 colon): 2.13 µM

SMILES: COc1ccc2nc(C)cc(NCCCCCCCCCNc3cc(C)nc4ccc(OC)cc34)c2c1
- TGI (MDA-MB-435): 2.95 µM
- TGI (UO-31 renal): 28.3 µM
- TGI (SNB-75 CNS): 12.5 µM
- TGI (SNB-78 CNS): 26.4 µM
- TGI (SN12C renal): 11.4 µM
- TGI (M14 melanoma): 5.9 µM
- TGI (KM20L2 colon): 6.36 µM
- TGI (MDA-MB-231 breast): 2.54 µM
- TGI (SNB-19 CNS): 10.2 µM
- TGI (ACHN renal): 21.2 µM
- TGI (NCI-H23 lung): 6.89 µM
- TGI (MDA-N): 2.83 µM
- TGI (HCT-116 colon): 1.46 µM
- TGI (SF-295 CNS): 2.33 µM
- TGI (COLO 205 colon): 7.47 µM
- TGI (SW-620 colon): 2.32 µM
- TGI (NCI-H460 lung): 1.77 µM
- TGI (DU-145 prostate): 19.5 µM
- TGI (DMS 273 small cell lung): 13.4 µM
- TGI (SR leukemia): 29.3 µM
- TGI (CCRF-CEM leukemia): 11.2 µM
- TGI (IGROV1 ovarian): 9.1 µM
- TGI (U251 CNS): 5.77 µM
- TGI (OVCAR-3 ovarian): 2.76 µM
- TGI (SF-268 CNS): 11.3 µM
- TGI (SK-MEL-2 melanoma): 10.8 µM
- TGI (RPMI-8226 leukemia): > 24.7 µM
- TGI (PC-3 prostate): 5.01 µM
- TGI (OVCAR-5 ovarian): 15.2 µM
- TGI (EKVX NSCLC): 7.36 µM
- TGI (K-562 leukemia): 2.93 µM
- TGI (NCI-H522 lung): 2.13 µM
- TGI (UACC-257 melanoma): 21.2 µM
- TGI (DLD-1 colon): 6.61 µM
- TGI (OVCAR-4 ovarian): 9.32 µM
- TGI (MOLT-4 leukemia): > 34.7 µM
- TGI (TK-10 renal): 9.77 µM
- TGI (A498 renal): 43.4 µM
- TGI (HCT-15 colon): 5.32 µM
- TGI (SK-MEL-5 melanoma): 3.11 µM
- TGI (BT-549 breast): 21.1 µM
- TGI (SK-OV-3 ovarian): 25.7 µM
- TGI (HOP-92 NSCLC): 5.21 µM
- TGI (HOP-62 NSCLC): 10.6 µM
- TGI (UACC-62 melanoma): 7.34 µM
- TGI (OVCAR-8 ovarian): 1.42 µM
- TGI (MCF7 breast): 2.47 µM
- TGI (SF-539 CNS): 2.4 µM
- TGI (NCI-H226 lung): 27.6 µM
- TGI (RXF 393 renal): 5.96 µM
- TGI (786-0 renal): 2.31 µM
- TGI (CAKI-1 renal): 18.3 µM
- TGI (A549 NSCLC): 8.3 µM
- TGI (SK-MEL-28 melanoma): 29.9 µM
- TGI (M19-MEL melanoma): 31.9 µM
- TGI (LOX IMVI melanoma): 1.99 µM
- TGI (NCI/ADR-RES ovarian): 34.8 µM
- TGI (HT29 colon): 2.05 µM
- TGI (DMS 114 small cell lung): 2.51 µM
- TGI (XF 498 CNS): 3.69 µM
- TGI (LXFL 529 NSCLC): 2.4 µM
- TGI (KM12 colon): 2.74 µM
- TGI (T-47D breast): 3.46 µM
- TGI (MALME-3M melanoma): 17.7 µM
- TGI (HL-60(TB) leukemia): 5.25 µM
- TGI (HCC-2998 colon): 2.73 µM
